The results in this text go back to PubChem BioAssay (NCI).

Values joined by “and” are separate entries in the source; they are usually repeats but may differ in a detail not shown here. Equal entries are not always repeated.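 Results reflect a 48-hour exposure of cells in 96-well plates to compound at five concentrations. Here, GI50 denotes the concentration required for 50% inhibition of growth. TGI marks complete inhibition of growth.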

Among the test systems are OVCAR-4 ovarian; HOP-62 NSCLC; OVCAR-5 ovarian; MALME-3M melanoma; HT29 colon; SN12C renal; NCI-H23 lung; MCF7 breast; HS 578T breast; SK-MEL-2 melanoma.
Common to all, as to assay: inhibition of tumour cell growth, NCI panel, 48 h

Regarding `Cn1cc(C2=C(c3cc[nH]c3)C(=O)NC2=O)c2ccccc21`, the GI50 in the test with OVCAR-4 ovarian, in the test on HOP-62 NSCLC, in the test with OVCAR-5 ovarian, in the test on MALME-3M melanoma, with HT29 colon and in the test on SN12C renal was above 25 µM throughout. The GI50 with NCI-H23 lung is above 25 µM; with MCF7 breast, 11.8 µM; in the test with HS 578T breast, 9.97 µM; with SK-MEL-2 melanoma, above 25 µM. The TGI in the test with OVCAR-4 ovarian, in the test on HOP-62 NSCLC, in the test with OVCAR-5 ovarian, in the test with MALME-3M melanoma, in the test on HT29 colon and with SN12C renal was above 25 µM throughout. The TGI in the test on NCI-H23 lung, with MCF7 breast, in the test on HS 578T breast and with SK-MEL-2 melanoma was above 25 µM in each case.
Take `COc1cccc(N2CCN(c3ncnc4cc[nH]c34)CC2)c1`: the GI50 in the test with OVCAR-4 ovarian is 1.73 µM; with HOP-62 NSCLC it was 17.8 µM; in the test on OVCAR-5 ovarian it was 43.6 µM; in the test with MALME-3M melanoma it was 10 µM; with HT29 colon, 20 µM; with SN12C renal, 32.6 µM. The GI50 in the test on NCI-H23 lung was 3.47 µM; with MCF7 breast it was 2.65 µM; with HS 578T breast, 35.7 µM; in the test with SK-MEL-2 melanoma it was 10.3 µM. Further, the TGI is above 100 µM in the test with OVCAR-4 ovarian; above 100 µM in the test with HOP-62 NSCLC; above 100 µM in the test on OVCAR-5 ovarian; 55.3 µM in the test with MALME-3M melanoma; above 100 µM with HT29 colon; above 100 µM in the test on SN12C renal. In addition, the TGI in the test with NCI-H23 lung is above 100 µM; in the test with MCF7 breast, 47.4 µM; in the test with HS 578T breast it was above 100 µM; in the test on SK-MEL-2 melanoma, 50.9 µM.
For `O=c1cc(-c2ccccc2)oc2cc(OCCCCCN3CCOCC3)cc(O)c12`, the GI50 was above 100 µM in the test with OVCAR-4 ovarian; 10.2 µM with HOP-62 NSCLC; 18.1 µM in the test with OVCAR-5 ovarian; 40.3 µM in the test with HT29 colon; above 100 µM in the test with SN12C renal; 88.4 µM with MCF7 breast. In addition, the GI50 was 41.3 µM in the test on HS 578T breast and 25.4 µM in the test on SK-MEL-2 melanoma. For the same compound, the TGI with OVCAR-4 ovarian is above 100 µM; in the test with HOP-62 NSCLC, 23.1 µM; in the test on OVCAR-5 ovarian, 95.3 µM; in the test on HT29 colon, above 100 µM; in the test with SN12C renal it was above 100 µM; with MCF7 breast, above 100 µM. Besides, the TGI was above 100 µM in the test with HS 578T breast and 91.7 µM in the test with SK-MEL-2 melanoma.
Take `COC(=O)c1c2c(c(C)[n+]([O-])c1C)C(=O)C(NCc1ccc(F)cc1)=CC2=O`: the GI50 in the test with OVCAR-4 ovarian was 0.519 µM; in the test with HOP-62 NSCLC it was 2.4 µM; in the test with OVCAR-5 ovarian, 1.8 µM; with MALME-3M melanoma, 0.187 µM; in the test with HT29 colon, 0.711 µM; in the test with SN12C renal, 1.17 µM. For the same compound, the GI50 in the test with NCI-H23 lung was 1.33 µM; in the test with MCF7 breast, 1.11 µM; in the test with HS 578T breast, 2.47 µM; with SK-MEL-2 melanoma, 1.75 µM. Also, the TGI in the test with OVCAR-4 ovarian was 1.87 µM; with HOP-62 NSCLC, 22.5 µM; with OVCAR-5 ovarian, 3.59 µM; in the test on MALME-3M melanoma, 0.493 µM; with HT29 colon, above 100 µM; in the test with SN12C renal it was 2.62 µM. Also, the TGI amounted to 3.79 µM in the test on NCI-H23 lung, 2.86 µM in the test on MCF7 breast, 8.03 µM with HS 578T breast and 4.03 µM in the test on SK-MEL-2 melanoma.
Take `CC(=O)O[C@@H]1C2=C(C)C3(CC3)[C@@](C)(O)C(=O)C2=C[C@@]1(C)CO`: the GI50 in the test on OVCAR-4 ovarian was 0.674 µM; with HOP-62 NSCLC it was 0.474 µM; in the test with OVCAR-5 ovarian, 0.427 µM; with MALME-3M melanoma, 0.893 µM; in the test on HT29 colon, 0.322 µM; with SN12C renal, 1.86 µM. The GI50 in the test with NCI-H23 lung was 0.473 µM; with MCF7 breast, 0.371 µM; in the test on HS 578T breast it was 1.68 µM; with SK-MEL-2 melanoma, 1.86 µM. Besides, the TGI in the test on OVCAR-4 ovarian is 4.44 µM; in the test with HOP-62 NSCLC, 4.52 µM; in the test with MALME-3M melanoma it was 2.5 µM; with HT29 colon, above 100 µM; in the test with SN12C renal it was 13.9 µM; in the test on NCI-H23 lung it was 2.66 µM. Moreover, the TGI was 3.28 µM with MCF7 breast, 5.75 µM with HS 578T breast and 4.43 µM in the test on SK-MEL-2 melanoma.
For the compound `C=CCC(N[C@H](CO)c1ccccc1)c1ccccn1` (stereo not given in full), the GI50 with OVCAR-4 ovarian, with HOP-62 NSCLC, with OVCAR-5 ovarian, in the test with MALME-3M melanoma, in the test with HT29 colon and in the test with SN12C renal was above 100 µM each time. The GI50 with NCI-H23 lung, in the test with HS 578T breast and in the test on SK-MEL-2 melanoma was above 100 µM in each case. Also, the TGI in the test with OVCAR-4 ovarian, in the test on HOP-62 NSCLC, with OVCAR-5 ovarian, in the test with MALME-3M melanoma, with HT29 colon and with SN12C renal was above 100 µM each time. In addition, the TGI in the test with NCI-H23 lung, in the test on HS 578T breast and in the test on SK-MEL-2 melanoma was above 100 µM each time.
For `Oc1ccc(Cl)cc1Sc1cc(Cl)ccc1O`, the GI50 was 3.4 µM in the test on OVCAR-4 ovarian; 3.04 µM in the test with HOP-62 NSCLC; 3.12 µM in the test with OVCAR-5 ovarian; 2.41 µM in the test on MALME-3M melanoma; 3.27 µM in the test on HT29 colon; 3.16 µM in the test on SN12C renal. The GI50 was 2.23 µM in the test with NCI-H23 lung, 3.33 µM with MCF7 breast and 2.17 µM in the test on SK-MEL-2 melanoma. For the same compound, the TGI with OVCAR-4 ovarian was 22.9 µM and 13.5 µM; in the test on HOP-62 NSCLC, 32.9 µM and 12 µM; in the test with OVCAR-5 ovarian, 34.3 µM and 12.7 µM; with MALME-3M melanoma, 20.3 µM and 6.81 µM; with HT29 colon, 33 µM and 12.6 µM; in the test with SN12C renal, 27.4 µM and 10.4 µM. In addition, the TGI with NCI-H23 lung was 24.2 µM and 7.33 µM; in the test with MCF7 breast it was 34.5 µM and 10.7 µM; in the test on HS 578T breast, 29.7 µM; with SK-MEL-2 melanoma it was 24.2 µM and 5.56 µM.
As for `CN(C)CC1C(=O)O[C@H]2[C@H]1CC/C(COC(=O)NCc1ccc(Cn3c(=O)sn(CCCI)c3=O)cc1)=C\CC[C@@]1(C)O[C@@H]21` (stereo not given in full), the GI50 was 0.843 µM in the test with OVCAR-4 ovarian; 4.23 µM in the test with HOP-62 NSCLC; 1.38 µM in the test on OVCAR-5 ovarian; 0.836 µM in the test with MALME-3M melanoma; 0.945 µM in the test on HT29 colon; 0.958 µM with SN12C renal. For the same compound, the results for the GI50 with NCI-H23 lung, in the test on HS 578T breast and in the test on SK-MEL-2 melanoma were 4.56 µM, 5.75 µM and 6.31 µM, respectively. The TGI came out at 1.77 µM in the test on OVCAR-4 ovarian; 12.7 µM in the test with HOP-62 NSCLC; 5.04 µM with OVCAR-5 ovarian; 1.69 µM in the test on MALME-3M melanoma; 1.84 µM in the test on HT29 colon; 2.12 µM with SN12C renal. The TGI came out at 12.9 µM with NCI-H23 lung, 17.7 µM in the test on HS 578T breast and 13.8 µM with SK-MEL-2 melanoma.
